Counter-ions that a name gives are not always drawn. Like-named read-outs stand apart in the source and are kept apart here.
How the values were obtained:
[1] = Miscibility or solubility of fluorinated molecules in propellants; details: for Concentration (C, in brackets) at which the miscibility or solubility test was done, HFA-134a / Concentration (C, in brackets) at which the miscibility or solubility test was done, HFA-227: solutions below this are monophasic, not an upper limit; for Miscibility or solubility, HFA-134a: in propellant HFA-134a, at the concentration in brackets; for Miscibility or solubility, HFA-227: in propellant HFA-227, at the concentration in brackets
From the text: The fluorinated chemical was weighed in a clear PET vial. The vial was then crimped, and subsequently pressure filled with one of the propellants until the desired total weight was reached.
Solutions at concentrations below these limits are therefore monophasic. The concentrations quoted are not upper limits.

[2] = Solubility of drug compounds in 4HPFOH (optical, UV-Vis); format: physicochemical
Protocol: Although most drug compounds are insoluble in the fluorinated systems, in some instances it is possible to solubilise the drug.
Drug suspensions were prepared in sealed glass vials by weight. The suspensions were then allowed to rest over a couple of day to reach equilibrium. They were firstly assessed optically, and in the case of a possible solubility by UV-vis spectroscopy. The solutions were then filtered with 0.2 μm PTFE filters and studied by UV-Vis spectroscopy between 280 nm and 350 nm. A range of suspensions were prepared, to be able to reach saturation levels. Calibration curves were then drawn by plotting the absorbance as a function of concentration. The inflexion point at which the slope of the calibration plot changed was taken as the solubility limit. The experiment was carried out at least 3 times for each drug.

[3] = Solubility of selected excipients in 4HPFOH; details: for Concentration % w/w (at which solubility in 4HPFOH was assessed): excipient in 4HPFOH; for Solubility or miscibility in 4HPFOH: excipient in 4HPFOH at the concentration of the same line, sonicated, heated, cooled
Protocol: The second test carried out was to evaluate the solubility (or miscibility in the case of liquid samples) of some excipients in 4HPFOH.
The excipients were weighed in glass vials with a screw-on plastic cap. 4HPFOH was added at the required concentration, and the vial sealed with Teflon tape and the screw-on cap. The sample was sonicated and heated to quicken the solubilisation of the excipient. The vial was then allowed to cool down.

Row | SMILES | Concentration (C, in brackets) at which the miscibility or solubility test was done, HFA-134a [1] | Concentration (C, in brackets) at which the miscibility or solubility test was done, HFA-227 [1] | Miscibility or solubility, HFA-134a [1] | Miscibility or solubility, HFA-227 [1] | further results
1 | OCCC(F)(F)C(F)(F)C(F)(F)C(F)(F)C(F)(F)C(F)(F)F [1H,1H,2H,2H Perfluorooctan-1-ol] | (C <7.30% w/w) | < 5.17 % w/w | Yes | Yes | –
2 | OCC(O)CC(F)(F)C(F)(F)C(F)(F)C(F)(F)C(F)(F)C(F)(F)F (centres unmarked) [1H,1H,2H,3H,3H Perfluoro-1,2-nonandiol] | (C <4.84% w/w) | < 3.71 % w/w | Yes | Yes | –
3 | OCC(F)(F)C(F)(F)C(F)(F)C(F)(F)C(F)(F)C(F)(F)C(F)(F)C(F)(F)F [1H,1H, Perfluorononan-1-ol] | (C <4.55% w/w) | < 4.15 % w/w | Yes | Yes | –
4 | FC(OC(F)(F)C(F)(OC(F)(F)C(F)(OC(F)(F)C(F)(OC(F)(F)C(F)(F)C(F)(F)F)C(F)(F)F)C(F)(F)F)C(F)(F)F)C(F)(F)F (centres unmarked) [2H Perfluoro-5,8,11-trimethyl-3,6,9,12-tetrafluoropropylether] | (C <43.49% w/w) | (C <35.36% w/w) | Yes | Yes | –
5 | Cc1ccc(CCOCCNS(=O)(=O)CCCNCCc2ccc(O)c3nc(O)sc23)cc1 [3-[2-(4-hydroxy-2-oxo-3H-1,3-benzothiazol-7-yl)ethylamino]-N-[2-[2-(4-methylphenyl)ethoxy)ethyl]propansulphonamide] | – | – | – | – | Solubility in 4HPFOH [2]: less than 0.1 ppm(w/w); Solubility in 4HPFOH (in words) [2]: insoluble
6 | CCCC1O[C@@H]2C[C@H]3[C@@H]4CCC5=CC(=O)C=C[C@]5(C)[C@H]4[C@@H](O)C[C@]3(C)[C@]2(C(=O)CO)O1 (some centres unmarked) [Budesonide] | – | – | – | – | Solubility in 4HPFOH (in words) [2]: soluble; Solubility limit in 4HPFOH [2]: 0.219-0.246 % w/w
7 | C[C@H](CCC(=O)O)[C@H]1CC[C@H]2[C@@H]3CC[C@@H]4C[C@H](O)CC[C@]4(C)[C@H]3C[C@H](O)[C@]12C [Deoxycholic acid] | – | – | – | – | Concentration % w/w (at which solubility in 4HPFOH was assessed) [3]: 0.90 % w/w; Solubility or miscibility in 4HPFOH [3]: Yes
8 | CCCCC(CC)COC(=O)CC(C(=O)OCC(CC)CCCC)S(=O)(=O)[O-].[Na+] (centres unmarked) [Dioctyl-sulfosuccinate sodium salt] | – | – | – | – | Concentration % w/w (at which solubility in 4HPFOH was assessed) [3]: 0.096 % w/w; Solubility or miscibility in 4HPFOH [3]: Yes
9 | CCCCCCCCCCCC[N+](C)(C)C.[Br-] [Dodecyltrimethyl Ammonium Bromide] | – | – | – | – | Concentration % w/w (at which solubility in 4HPFOH was assessed) [3]: 1.00 % w/w; Solubility or miscibility in 4HPFOH [3]: Yes
10 | CCOC(=O)C(F)(F)C(F)(F)C(F)(F)C(F)(F)C(F)(F)C(F)(F)C(F)(F)C(F)(F)C(F)(F)C(F)F [Ethyl 11H-Perfluoroundecanoate] | (C <4.93% w/w) | < 4.43 % w/w | Yes | Yes | –
11 | CCOC(=O)C(F)(F)C(F)(F)C(F)(F)C(F)(F)C(F)(F)C(F)(F)C(F)(F)C(F)(F)C(F)(F)C(F)(F)C(F)(F)F [Ethyl Perfluoro n-Dodecanoate] | (C <9.24% w/w) | (C <41.15% w/w) | Yes | Yes | –
12 | COc1ccc(CC(C)NCC(O)c2ccc(O)c(NC=O)c2)cc1 (centres unmarked) [Formoterol Fumarate Dihydrate] | – | – | – | – | Solubility in 4HPFOH (in words) ([2]; in 4HPFOH, equilibrated a couple of days): insoluble
13 | COC(=O)C(F)(F)C(F)(F)C(F)(F)C(F)(F)C(F)(F)C(F)(F)C(F)(F)C(F)(F)C(F)(F)F [Methyl Perfluorodecanoate] | (C <42.63% w/w) | (C <39.40% w/w) | Yes | Yes | –
14 | COC(=O)C(F)(OC(F)(F)C(F)(OC(F)(F)C(F)(OC(F)(F)C(F)(OC(F)(F)C(F)(F)C(F)(F)F)C(F)(F)F)C(F)(F)F)C(F)(F)F)C(F)(F)F (centres unmarked) [Methyl perfluoro 2,5,9,11-Tetramethyl 3,6,9,12 Tetraoxapentadecanoate] | (C <10.37% w/w) | < 8.90 % w/w | Yes | Yes | –
15 | CCCCCCCCO[C@@H]1O[C@H](CO)[C@@H](O)[C@H](O)[C@H]1O [N Octyl beta D Glucopyranoside] | – | – | – | – | Concentration % w/w (at which solubility in 4HPFOH was assessed) [3]: 0.11 % w/w; Solubility or miscibility in 4HPFOH [3]: Yes
16 | CCCCCCCCC[N+](C)(C)C.[Br-] [Nonyltrimethyl Ammonium Bromide] | – | – | – | – | Concentration % w/w (at which solubility in 4HPFOH was assessed) [3]: 0.96 % w/w; Solubility or miscibility in 4HPFOH [3]: Yes
17 | O=C(OC(=O)C(F)(F)C(F)(F)C(F)(F)C(F)(F)C(F)(F)C(F)(F)F)C(F)(F)C(F)(F)C(F)(F)C(F)(F)C(F)(F)C(F)(F)F [Perfluoroheptanoic anhydride] | (C <9.89% w/w) | < 9.13 % w/w | Yes | Yes | –
18 | CC(C)(C)NCC(O)c1cc(O)cc(O)c1 (centres unmarked) [Terbutaline Sulphate] | – | – | – | – | Solubility in 4HPFOH [2]: less than 0.1 ppm(w/w); Solubility in 4HPFOH (in words) [2]: insoluble
